According to ChEMBL document CHEMBL1151408 (J Nat Prod, 1983):

Legend:
Mus musculus [1] = organism: Mus musculus; experiment: Increase in hepatic ethylmorphine N-demethylase activity in mouse; assay type: functional
Mus musculus [2] = organism: Mus musculus; experiment: Increase in aryl hydrocarbon hydroxylase activity in mouse; assay type: functional

Compound `CO[C@H]1/C=C/O[C@@]2(C)Oc3c(C)c(O)c4c(O)c(c(/C=N/N5CCN(C)CC5)c(O)c4c3C2=O)NC(=O)/C(C)=C\C=C\[C@H](C)[C@H](O)[C@@H](C)[C@@H](O)[C@@H](C)[C@H](OC(C)=O)[C@@H]1C` [RIFAMPIN] has an Activity (Mus musculus [1]) of 85% and an Activity (Mus musculus [2]) of 174%.
